Consider 21 compounds from PubChem BioAssay AID256 (DTP/NCI, 2004).

Structures are written as SMILES. Values joined by “and” are separate entries in the source; they are usually repeats but may differ in a detail not shown here. Equal values may be shown once. Inconclusive results and toxic doses are left out.

For the assay, the system named is CD2F1 mice, L1210 leukemia ip, survival T/C. Description: NCI In Vivo Anticancer Drug Screen. Data for tumor model L1210 Leukemia (intraperitoneal) in CD2F1 (CDF1) mice. The conditions noted are these: endpoint: mean survival time, higher = longer survival. The gist of the method:
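Transplantable tumor in mice; compound-treated vs vehicle-treated groups. Read-out = treated/control ratio of the measured endpoint.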

The mark [1] stands for this setting: dose: 25.0 mg/kg/injection, schedule: Q01DX009 (ip), vehicle: saline.
[2] abbreviates: dose: 50.0 mg/kg/injection, schedule: Q01DX009 (ip), vehicle: saline.
Setting [3] is: dose: 100.0 mg/kg/injection, schedule: Q01DX009 (ip), vehicle: saline.
The mark [4] stands for this setting: dose: 50.0 mg/kg/injection, schedule: Q01DX009 (ip), vehicle: saline with Tween-80.
Setting [5] is: dose: 100.0 mg/kg/injection, schedule: Q01DX009 (ip), vehicle: saline with Tween-80.
[6] abbreviates: dose: 200.0 mg/kg/injection, schedule: Q01DX009 (ip), vehicle: saline with Tween-80.
The mark [7] stands for this setting: dose: 100.0 mg/kg/injection, schedule: Q04DX003 (ip), vehicle: acetone.
[8] abbreviates: dose: 200.0 mg/kg/injection, schedule: Q04DX003 (ip), vehicle: acetone.
The mark [9] stands for this setting: dose: 400.0 mg/kg/injection, schedule: Q04DX003 (ip), vehicle: acetone.
Where [10] appears, read: dose: 100.0 mg/kg/injection, schedule: Q04DX003 (ip), vehicle: saline.
[11] abbreviates: dose: 200.0 mg/kg/injection, schedule: Q04DX003 (ip), vehicle: saline.
[12] abbreviates: dose: 400.0 mg/kg/injection, schedule: Q04DX003 (ip), vehicle: saline.
Where [13] appears, read: dose: 400.0 mg/kg/injection, schedule: Q01DX009 (ip), vehicle: saline with Tween-80.
Where [14] appears, read: dose: 100.0 mg/kg/injection, schedule: Q04DX003 (ip), vehicle: saline with Tween-80.
The mark [15] stands for this setting: dose: 200.0 mg/kg/injection, schedule: Q04DX003 (ip), vehicle: saline with Tween-80.
The mark [16] stands for this setting: dose: 400.0 mg/kg/injection, schedule: Q04DX003 (ip), vehicle: saline with Tween-80.
[17] abbreviates: dose: 200.0 mg/kg/injection, schedule: Q01DX009 (ip), vehicle: saline.
Setting [18] is: dose: 100.0 mg/kg/injection, schedule: Q01DX001 (ip), vehicle: saline with Tween-80.
Where [19] appears, read: dose: 200.0 mg/kg/injection, schedule: Q01DX001 (ip), vehicle: saline with Tween-80.
Where [20] appears, read: dose: 400.0 mg/kg/injection, schedule: Q01DX001 (ip), vehicle: saline with Tween-80.
Where [21] appears, read: dose: 25.0 mg/kg/injection, schedule: Q01DX009 (ip), vehicle: saline with Tween-80.

`CN(C)CCCCNc1ccc(NCCCCN(C)C)c2c1C(=O)c1c(O)ccc(O)c1C2=O`: the T/C reads like this: under setting [1], 102 % of control; under setting [2], 98 % of control; under setting [3], 93 % of control.

Consider `CS(=O)(=O)Nc1ccc2c(c1)C(=O)c1ccccc1C2=O`, for which the T/C under setting [4] is 101 % of control, the T/C under setting [5] is 101 % of control and the T/C under setting [6] is 97 % of control.

Regarding `CC1CCC=C2C(=O)C3OC3C(C(C)(C)O)C21C` (stereo not drawn), the T/C is 93 % of control under setting [7], 88 % of control under setting [8] and 88 % of control under setting [9].

Take `Cc1cccc[n+]1CCCS(=O)(=O)[O-]`: the T/C was 104 % of control under setting [10], 102 % of control under setting [11] and 101 % of control under setting [12].

On to `O=C(CC(=O)c1ccccc1)CC(=O)c1ccccc1`, for which the T/C was 98 % of control under setting [5], 100 % of control under setting [6] and 102 % of control under setting [13].

As for `[N-]=[N+]=CC(=O)NCC(=O)NNC(=O)c1ccccc1`, the T/C runs as follows: under setting [5], 105 % of control; under setting [14], 96 % of control; under setting [6], 107 % of control; under setting [15], 104 % of control; under setting [13], 108 % of control; under setting [16], 105 % of control.

`C=CCC(C)C(C)C` (stereo not drawn): the T/C is 96 % of control under setting [2], 100 % of control under setting [3] and 100 % of control under setting [17].

For the compound `O=c1cc(NCCCOc2ccccc2)[nH]c(=O)[nH]1`, the T/C reads like this: under setting [18], 98 % of control; under setting [19], 98 % of control; under setting [20], 98 % of control.

For the compound `O=[N+]([O-])c1nccn1CC(O)CO` (stereo not drawn), the T/C is 102 % of control (dose: 12.5 mg/kg/injection, schedule: Q01DX009 (ip), vehicle: saline); 105 % of control under setting [1]; 102 % of control under setting [2]; 101 % of control under setting [3]; 102 % of control under setting [17]; 103 % of control (dose: 400.0 mg/kg/injection, schedule: Q01DX009 (ip), vehicle: saline).

On to `N#Cc1nc(C#N)c(Sc2ccccc2)c(Sc2ccccc2)c1Sc1ccccc1`, for which the T/C (dose: 3.12 mg/kg/injection, schedule: Q01DX009 (ip), vehicle: saline with Tween-80) is 103 % of control and 104 % of control; the T/C (dose: 6.25 mg/kg/injection, schedule: Q01DX009 (ip), vehicle: saline with Tween-80) is 94 % of control and 100 % of control; the T/C (dose: 12.5 mg/kg/injection, schedule: Q01DX009 (ip), vehicle: saline with Tween-80) was 94 % of control; the T/C under setting [21] was 96 % of control and 102 % of control; the T/C under setting [4] is 90 % of control and 102 % of control; the T/C under setting [5] was 96 % of control and 103 % of control.

Regarding `CN(C)N=Nc1ccccc1`, the T/C (dose: 37.5 mg/kg/injection, schedule: Q01DX009 (ip), vehicle: Klucel (hydroxypropylcellulose) (HPC)) is 158 % of control and the T/C (dose: 75.0 mg/kg/injection, schedule: Q01DX009 (ip), vehicle: Klucel (hydroxypropylcellulose) (HPC)) was 106 % of control.

Regarding `CCOC(=O)c1cnc(SC)nc1NCc1ccc(Cl)cc1`, the T/C reads like this: under setting [18], 98 % of control; under setting [5], 100 % of control; under setting [19], 102 % of control; under setting [6], 103 % of control; under setting [20], 94 % of control; under setting [13], 97 % of control.

As to `CCCCC[CH2][Sn]([CH2]C)([CH2]C)[O]C(C)=O`, the T/C (dose: 0.5 mg/kg/injection, schedule: Q04DX003 (ip), vehicle: saline) was 103 % of control; the T/C (dose: 0.63 mg/kg/injection, schedule: Q04DX003 (ip), vehicle: saline with Tween-80) is 95 % of control; the T/C (dose: 1.0 mg/kg/injection, schedule: Q04DX003 (ip), vehicle: saline) is 100 % of control; the T/C (dose: 1.25 mg/kg/injection, schedule: Q04DX003 (ip), vehicle: saline with Tween-80) is 93 % of control; the T/C (dose: 2.0 mg/kg/injection, schedule: Q04DX003 (ip), vehicle: saline) is 91 % of control; the T/C (dose: 2.5 mg/kg/injection, schedule: Q04DX003 (ip), vehicle: saline with Tween-80) is 88 % of control.

`CC(C)N=C1C([O-])=N[N+](C)(C)N1C(C)C`: the T/C is 106 % of control under setting [5]; 95 % of control under setting [10]; 93 % of control under setting [6]; 98 % of control under setting [11]; 98 % of control under setting [13]; 110 % of control under setting [12].

As for `CC(=O)c1ccc2c3c(cccc13)CC2`, the T/C by setting is: under setting [18], 94 % of control; under setting [19], 96 % of control; under setting [20], 110 % of control.

With `CCOC(=O)C(C)(C)Oc1nn(Cc2ccccc2)c2ccccc12`, the T/C runs as follows: (dose: 25.0 mg/kg/injection, schedule: Q04DX003 (ip), vehicle: saline with Tween-80) 104 % of control; (dose: 50.0 mg/kg/injection, schedule: Q04DX003 (ip), vehicle: saline with Tween-80) 102 % of control; under setting [14], 102 % of control.

As to `CC1C=C(Br)C(=O)C(n2cnc3c(=O)n(C)c(=O)n(C)c32)O1` (stereo not drawn), the T/C reads like this: (dose: 12.5 mg/kg/injection, schedule: Q01DX005 (ip), vehicle: distilled water + Tween-80) 100 % of control; (dose: 25.0 mg/kg/injection, schedule: Q01DX005 (ip), vehicle: distilled water + Tween-80) 97 % of control.

For the compound `COC(=O)C(CCC1CCCCC1)CC1CCCCC1` (stereo not drawn), the T/C is 108 % of control under setting [7], 102 % of control under setting [8] and 108 % of control under setting [9].

Take `COc1cc([N+](=O)[O-])ccc1NC(=O)N(c1ccccc1)C(C)C`: the T/C reads like this: under setting [18], 101 % of control and 112 % of control; under setting [5], 98 % of control and 105 % of control; (dose: 100.0 mg/kg/injection, schedule: Q04DX002 (ip), vehicle: saline with Tween-80) 96 % of control; under setting [14], 101 % of control; under setting [19], 101 % of control and 104 % of control; under setting [6], 94 % of control and 95 % of control. Further, the T/C is 98 % of control (dose: 200.0 mg/kg/injection, schedule: Q04DX002 (ip), vehicle: saline with Tween-80); 95 % of control under setting [15]; 95 % of control and 97 % of control under setting [20]; 94 % of control and 101 % of control under setting [13]; 98 % of control (dose: 400.0 mg/kg/injection, schedule: Q04DX002 (ip), vehicle: saline with Tween-80); 103 % of control under setting [16].

`O=C(O)c1c[nH]c2ccc([N+](=O)[O-])cc2c1=O`: the T/C was 104 % of control (dose: 50.0 mg/kg/injection, schedule: Q01DX001 (ip), vehicle: Klucel (hydroxypropylcellulose) (HPC)); 120 % of control (dose: 100.0 mg/kg/injection, schedule: Q01DX001 (ip), vehicle: Klucel (hydroxypropylcellulose) (HPC)); 93 % of control under setting [18]; 89 % of control under setting [19]; 86 % of control under setting [20].

In the case of `CCCC(CCC)=NN=C(CCC)CCC`, the T/C (dose: 25.0 mg/kg/injection, schedule: Q01DX005 (ip), vehicle: saline) is 97 % of control; the T/C under setting [21] is 95 % of control; the T/C (dose: 50.0 mg/kg/injection, schedule: Q01DX005 (ip), vehicle: saline) is 97 % of control; the T/C under setting [4] was 106 % of control; the T/C (dose: 50.0 mg/kg/injection, schedule: Q04DX002 (ip), vehicle: saline + alcohol) is 95 % of control; the T/C (dose: 100.0 mg/kg/injection, schedule: Q01DX005 (ip), vehicle: saline) is 105 % of control. Also, the T/C by setting is: under setting [5], 91 % of control; (dose: 100.0 mg/kg/injection, schedule: Q04DX002 (ip), vehicle: saline + alcohol) 92 % of control; (dose: 200.0 mg/kg/injection, schedule: Q01DX005 (ip), vehicle: saline) 97 % of control; under setting [6], 93 % of control; (dose: 200.0 mg/kg/injection, schedule: Q04DX002 (ip), vehicle: saline + alcohol) 88 % of control.
